For one compound, IC50 results are on record in ChEMBL document CHEMBL1151250, “A DNA-damaging oxoaporphine alkaloid from Piper caninum” (J Nat Prod, 2004).

Common to all, as to assay type: functional, organism-based
Test [1] relates to Saccharomyces cerevisiae. Put plainly: Antimicrobial activity against Saccharomyces cerevisiae RS321NpRAD52 in presence of galactose.
Test [2] relates to Saccharomyces cerevisiae. Put plainly: Antimicrobial activity against Saccharomyces cerevisiae RS321NpRAD52 in presence of glucose.
Test [3] deals with Saccharomyces cerevisiae. Put plainly: Antimicrobial activity against Saccharomyces cerevisiae RS321NYCp50 in presence of galactose.

SMILES strings stand for the structures.

A word on the IC50: it is the concentration that inhibits the measured activity by half.

For `CN1C(=O)C(=O)c2cc3c(c4c2c1cc1ccccc14)OCO3` [CEPHARADIONE A], the half-maximal inhibitory concentration (IC50) is 115 µg/mL with Saccharomyces cerevisiae [1], 0.05 µg/mL in the test on Saccharomyces cerevisiae [2] and 0.2 µg/mL in the test with Saccharomyces cerevisiae [3].
